Converted amounts (≈) assume the structure as drawn. Read-outs that look alike come from different tables or passages of the source. Positions of bridges follow the written chain, without caps; N, C: chain ends. Non-standard residues stand in square brackets, D forms with d. Residues, ends and D or L forms follow the SMILES beside them. *: point of attachment. CH2CH2OBz(4-tBu) = CC(C)(C)c1ccc(C(=O)OCC*)cc1; Ethyl(2-OBz) = O=C(OCC*)c1ccccc1; Lauroyl = CCCCCCCCCCCC(=O)*; Dab = NCC[C@H](N)C(=O)O; X12 = O=C(OCC*)C1CCC1; X4 = CCCCCCCC(=O)OCC*; X7 = CC(C)CCC(=O)OCC*; X5 = CCC(C)C(=O)OCC*
What was measured:
[1] = tested on: P. aeruginosa ATCC 27853; assay type: cell-based, Pseudomonas aeruginosa
Source text: (§1) All 81 compounds prepared in Examples 2 and 3 underwent screening against a panel of Gram-negative bacterium to assess their ability to inhibit bacterial growth. […] The median value is presented.

[2] = tested on: A. baumannii ATCC 19606; assay type: cell-based, Acinetobacter baumannii
Source text: as §1

[3] = tested on: E. coli ATCC MS8345; assay type: cell-based, Escherichia coli
Source text: as §1
Expansion of the polymyxin macrocycle by substituting […]) offered little advantage in antimicrobial activity but was generally well tolerated although for A. baumanni and P. aeruginosa this was detrimental.

[4] = tested on: E. coli ATCC 25922; assay type: cell-based, Escherichia coli
Source text: as §1

[5] = tested on: K. pneumoniae ATCC 700603; assay type: cell-based, Klebsiella pneumoniae
Source text: as §1

[6] = tested on: K. pneumoniae ATCC 33495; assay type: cell-based, Klebsiella pneumoniae
Source text: as §1

[7] = tested on: K. pneumoniae ATCC MS6671; assay type: cell-based, Klebsiella pneumoniae
Source text: as §1

[8] = colistin-resistant strain, median of triplicate

Row | Structure (SMILES) | MIC P. aeruginosa ATCC 27853 ([1]; ATCC 27853) [µg/mL] | MIC A. baumannii ATCC 19606 ([2]; ATCC 19606) [µg/mL] | MIC E. coli ATCC MS8345 ([3]; ATCC MS8345) [µg/mL] | MIC E. coli ATCC 25922 ([4]; ATCC 25922) [µg/mL] | MIC K. pneumoniae ATCC 700603 ([5]; ATCC 700603) [µg/mL] | MIC K. pneumoniae ATCC 33495 ([6]; ATCC 33495) [µg/mL] | MIC K. pneumoniae ATCC MS6671 ([7]; ATCC MS6671) [µg/mL] | MIC P. aeruginosa ATCC 27853 ([1]; median of triplicate) [µg/mL] | MIC A. baumannii ATCC 19606 ([2]; median of triplicate) [µg/mL] | MIC E. coli ATCC MS8345 [3, 8] [µg/mL] | MIC E. coli ATCC 25922 ([4]; median of triplicate) [µg/mL] | MIC K. pneumoniae ATCC 700603 ([5]; median of triplicate) [µg/mL] | MIC K. pneumoniae ATCC 33495 ([6]; median of triplicate) [µg/mL] | MIC K. pneumoniae ATCC MS6671 ([7]; median of triplicate) [µg/mL]
1 | CC(C)C[C@@H]1NC(=O)[C@@H](Cc2ccccc2)NC(=O)[C@H](CCN)NC(=O)[C@@H](NC(=O)[C@H](CCN)NC(=O)[C@@H](NC(=O)[C@H](N)CSCCOC(=O)C2CCC2)[C@@H](C)O)CCNC(=O)[C@H]([C@@H](C)O)NC(=O)[C@H](CCN)NC(=O)[C@H](CCN)NC1=O [Compound 101] (H-[dC](X12)T[Dab][Dab][Dab][dF]L[Dab][Dab]T; lactam 4-C) | 2 (≈ 1.68 µM) | 4 (≈ 3.35 µM) | >32 | 1 (≈ 0.839 µM) | 2 (≈ 1.68 µM) | 1 (≈ 0.839 µM) | >32 | – | – | – | – | – | – | –
2 | CCC(C)C(=O)OCCSC[C@@H](N)C(=O)N[C@H](C(=O)N[C@@H](CCN)C(=O)N[C@H]1CCNC(=O)[C@H]([C@@H](C)O)NC(=O)[C@H](CCN)NC(=O)[C@H](CCN)NC(=O)[C@H](CC(C)C)NC(=O)[C@@H](Cc2ccccc2)NC(=O)[C@H](CCN)NC1=O)[C@@H](C)O (stereo partly drawn) [Compound 95] (H-[dC](X5)T[Dab][Dab][Dab][dF]L[Dab][Dab]T; lactam 4-C) | 1 (≈ 0.837 µM) | 4 (≈ 3.35 µM) | 16 (≈ 13.4 µM) | 1 (≈ 0.837 µM) | 2 (≈ 1.67 µM) | 1 (≈ 0.837 µM) | >32 | – | – | – | – | – | – | –
3 | C[C@@H](O)[C@@H]1NC(=O)[C@H](CCN)NC(=O)[C@H](CCN)NC(=O)[C@H](CSCCOC(=O)c2ccccc2)NC(=O)[C@@H](Cc2ccccc2)NC(=O)[C@H](CCN)NC(=O)[C@@H](NC(=O)[C@H](CCN)NC(=O)[C@@H](NC(=O)[C@H](CCN)NC(=O)[C@@H](N)CSCCOC(=O)c2ccc(C(C)(C)C)cc2)[C@@H](C)O)CCNC1=O [Compound 41] (H-C(CH2CH2OBz(4-tBu))[Dab]T[Dab][Dab][Dab][dF]C(Ethyl(2-OBz))[Dab][Dab]T; lactam 5-C) | – | – | – | – | – | – | – | 2 (≈ 1.33 µM) | 2 (≈ 1.33 µM) | 4 (≈ 2.65 µM) | 1 (≈ 0.663 µM) | 1 to 2 | 2 to 4 | >32
4 | CCCCCCCC(=O)OCCSC[C@@H](N)C(=O)N[C@H](C(=O)N[C@@H](CCN)C(=O)N[C@H]1CCNC(=O)[C@H]([C@@H](C)O)NC(=O)[C@H](CCN)NC(=O)[C@H](CCN)NC(=O)[C@H](CC(C)C)NC(=O)[C@@H](Cc2ccccc2)NC(=O)[C@H](CCN)NC1=O)[C@@H](C)O [Compound 92] (H-[dC](X4)T[Dab][Dab][Dab][dF]L[Dab][Dab]T; lactam 4-C) | 2 (≈ 1.62 µM) | 2 (≈ 1.62 µM) | 16 (≈ 12.9 µM) | 1 (≈ 0.809 µM) | 2 (≈ 1.62 µM) | 2 (≈ 1.62 µM) | >32 | – | – | – | – | – | – | –
5 | CC(C)CCC(=O)OCCSC[C@@H](N)C(=O)N[C@H](C(=O)N[C@@H](CCN)C(=O)N[C@H]1CCNC(=O)[C@H]([C@@H](C)O)NC(=O)[C@H](CCN)NC(=O)[C@H](CCN)NC(=O)[C@H](CC(C)C)NC(=O)[C@@H](Cc2ccccc2)NC(=O)[C@H](CCN)NC1=O)[C@@H](C)O [Compound 98] (H-[dC](X7)T[Dab][Dab][Dab][dF]L[Dab][Dab]T; lactam 4-C) | 1 (≈ 0.827 µM) | 2 (≈ 1.65 µM) | 4 (≈ 3.31 µM) | 0.5 (≈ 0.414 µM) | 1 (≈ 0.827 µM) | 1 (≈ 0.827 µM) | >32 | – | – | – | – | – | – | –
6 | CCCCCCCCCCCC(=O)N[C@@H](CSCCOC(=O)c1ccccc1)C(=O)N[C@@H](CCN)C(=O)N[C@H](C(=O)N[C@@H](CCN)C(=O)N[C@H]1CCNC(=O)[C@H]([C@@H](C)O)NC(=O)[C@H](CCN)NC(=O)[C@H](CCN)NC(=O)[C@H](CSCCOC(=O)c2ccccc2)NC(=O)[C@@H](Cc2ccccc2)NC(=O)[C@H](CCN)NC1=O)[C@@H](C)O [Compound 52] (Lauroyl-C(Ethyl(2-OBz))[Dab]T[Dab][Dab][Dab][dF]C(Ethyl(2-OBz))[Dab][Dab]T; lactam 5-C) | – | – | – | – | – | – | – | 4 (≈ 2.45 µM) | 2 to 4 | 2 to 4 | 2 to 4 | 4 (≈ 2.45 µM) | 2 to 4 | >32
